According to the Kinase Knowledgebase extract (Sharma et al. 2016):

The molecules below were run against PIK3CB;PIK3CG;PIK3CD;PIK3CA (human) (UniProt P48736) (assay: Inhibition of PIK3CA/PIK3CB/PIK3CD/PIK3CG Kinase Activity).

First: COc1ccc(CCO)c(Nc2nc3ccccc3nc2NS(=O)(=O)c2cn(C)cn2)c1
Second: CCCCO.COCCc1ccc(OC)cc1Nc1nc2ccccc2nc1NS(=O)(=O)c1cn(C)cn1
The IC50 of the first is 1.7-fold lower: 0.048 µM for the first, 0.083 µM for the second. The first is the more potent here.

Going from `COc1ccc(CN2CCN(C)CC2)c(Nc2nc3ccccc3nc2NS(=O)(=O)c2ccc(F)cc2)c1` to `COc1ccc(CCO)c(Nc2nc3ccccc3nc2NS(=O)(=O)c2ccc(CN3CCC(F)CC3)cc2)c1`, the IC50 falls from 0.11 µM to 0.043 µM (2.6-fold). The second is the more potent here.

First: COC(=O)c1ccc(OC)cc1Nc1nc2ccccc2nc1NS(=O)(=O)c1cn(C)cn1
Second: COc1ccc(C(C)C)c(Nc2nc3ccccc3nc2NS(=O)(=O)c2cn(C)cn2)c1
The IC50 of the first is 9.5-fold lower: 0.021 µM for the first, 0.2 µM for the second. The first is the more potent here.

First: COc1ccc(CCO)c(Nc2nc3ccccc3nc2NS(=O)(=O)c2ccc(CCCO)cc2)c1
Second: COc1ccc(CCO)c(Nc2nc3ccccc3nc2NS(=O)(=O)c2ccc(C)[n+]([O-])c2)c1
The IC50 of the first is 2.9-fold lower: 0.036 µM for the first, 0.106 µM for the second.

Compared with `COc1ccc(CCS(C)(=O)=O)c(Nc2nc3ccccc3nc2NS(=O)(=O)CCCSC)c1`, `COc1ccc(CCS(C)(=O)=O)c(Nc2nc3ccccc3nc2NS(=O)(=O)CCCS(C)(=O)=O)c1` is 2.5-fold higher in IC50: 0.14 µM for the first, 0.35 µM for the second. The first is the more potent here.

Compared with `COc1ccc(CC2CCCCC2)c(Nc2nc3ccccc3nc2NS(=O)(=O)c2ccc(CN(C)C)cc2)c1`, `COc1ccc(CC2CCOCC2)c(Nc2nc3ccccc3nc2NS(=O)(=O)c2ccc(CN(C)C)cc2)c1` is 25-fold lower in IC50: 0.76 µM for the first, 0.03 µM for the second. The second is the more potent here.

`COc1ccc(CCCO)c(Nc2nc3ccccc3nc2NS(=O)(=O)c2cn(C)c(CO)n2)c1` and `COc1ccc(CCCO)c(Nc2nc3ccccc3nc2NS(C)(=O)=O)c1` are within 1.5-fold of each other in IC50: 0.084 µM for the first, 0.064 µM for the second.

`COc1ccc(S(=O)(=O)NCCO)c(Nc2nc3ccccc3nc2NS(=O)(=O)CCCS(C)(=O)=O)c1` and `COc1cc(Nc2nc3ccccc3nc2NS(=O)(=O)CCCS(C)(=O)=O)cc(C(=O)NCCO)c1` are within 1.5-fold of each other in IC50: 0.3 µM for the first, 0.35 µM for the second.

Compared with `COc1ccc(CC2C[C@H]3CC[C@@H](C2)N3C)c(Nc2nc3ccccc3nc2NS(=O)(=O)c2cn(C)cn2)c1` (stereo partly drawn), `COc1ccc(CC2CCCC2)c(Nc2nc3ccccc3nc2NS(=O)(=O)c2cn(C)cn2)c1` is 1.6-fold higher in IC50: 0.11 µM for the first, 0.18 µM for the second.

First: COc1ccc(CCO)c(Nc2nc3ccccc3nc2NS(=O)(=O)CCCSC)c1
Second: CCCS(=O)(=O)Nc1nc2ccccc2nc1Nc1cc(OC)ccc1CCO
The IC50 of the first is 1.7-fold higher: 0.075 µM for the first, 0.044 µM for the second.

`COc1cc(Nc2nc3ccccc3nc2NS(=O)(=O)c2cn(C)cn2)cc(C(=O)N(C)C)c1` and `COc1cc(CN(C)C)cc(Nc2nc3ccccc3nc2NS(=O)(=O)c2cn(C)cn2)c1` are within 1.5-fold of each other in IC50: 0.76 µM for the first, 1.1 µM for the second.

Compared with `COc1cc(CN2CCN(C)CC2)cc(Nc2nc3ccccc3nc2NS(=O)(=O)c2cccnc2)c1`, `COc1ccc(CN2CCOCC2)c(Nc2nc3ccccc3nc2NS(=O)(=O)c2cccnc2)c1` is 13-fold lower in IC50: 0.97 µM for the first, 0.072 µM for the second.

First: COc1ccc(C(=O)O)c(Nc2nc3ccccc3nc2NS(=O)(=O)c2cccnc2)c1
Second: COc1ccc(CC2CCOCC2)c(Nc2nc3ccccc3nc2NS(=O)(=O)c2cccnc2)c1
The IC50 of the first is 170-fold higher: 4.68 µM for the first, 0.027 µM for the second.

`COc1ccc(CCO)c(Nc2nc3ccccc3nc2NS(=O)(=O)C2CCS(=O)(=O)C2)c1` (stereo not drawn) and `COc1ccc(CCO)c(Nc2nc3ccccc3nc2NS(C)(=O)=O)c1` are within 1.5-fold of each other in IC50: 0.086 µM for the first, 0.095 µM for the second.

`COc1ccc(CC2CCOCC2)c(Nc2nc3ccccc3nc2NS(C)(=O)=O)c1` and `COc1ccc(CC2CCN(C(C)=O)CC2)c(Nc2nc3ccccc3nc2NS(C)(=O)=O)c1` are within 1.5-fold of each other in IC50: 0.13 µM for the first, 0.17 µM for the second.

Compared with `COc1ccc(CC2CCSCC2)c(Nc2nc3ccccc3nc2NS(=O)(=O)c2cn(C)cn2)c1`, `COc1ccc(CC2CCCCC2)c(Nc2nc3ccccc3nc2NS(=O)(=O)c2cn(C)cn2)c1` is 4.5-fold higher in IC50: 0.1 µM for the first, 0.45 µM for the second.

Compared with `COc1ccc(CCCO)c(Nc2nc3ccccc3nc2NS(=O)(=O)c2c(C)noc2C)c1`, `CCS(=O)(=O)Nc1nc2ccccc2nc1Nc1cc(OC)ccc1CCO` is 2.2-fold lower in IC50: 0.13 µM for the first, 0.06 µM for the second. The second is the more potent here.

`COc1ccc(CCS(C)(=O)=O)c(Nc2nc3ccccc3nc2NS(=O)(=O)C(C)C)c1` and `COCCc1ccc(OC)cc1Nc1nc2ccccc2nc1NS(=O)(=O)c1cn(C)c(CS(C)(=O)=O)n1` are within 1.5-fold of each other in IC50: 0.16 µM for the first, 0.2 µM for the second.

Compared with `COc1cc(Nc2nc3ccccc3nc2NS(C)(=O)=O)cc(C(=O)N2CCOCC2)c1`, `COc1ccc(CC2CCS(=O)(=O)CC2)c(Nc2nc3ccccc3nc2NS(=O)(=O)c2ccc(CN(C)C)cc2)c1` is 560-fold lower in IC50: 5.62 µM for the first, 0.01 µM for the second.
